# Reference: US20150374784A1, “COMPOSITIONS AND METHODS FOR REDUCING GERM CELL DEATH” (Los Angeles Biomedical Research Institute at Harbor-UCLA …, priority 2014, published 2015)
# Peptide text beside a SMILES is read from it.
# Columns and labels:
# male germ cells = assay: TMZ-induced male germ cell apoptosis in SCID mice (TUNEL, Apoptosis Index); format: in vivo, mouse; conditions: 24 hours after last injection; TMZ 50 mg/Kg BW/day X 5 days; HNG 5 mg/Kg BW/day
# Method: Onco-infertility is a major concern of cancer survivors. In this study, it was investigated whether HNG will prevent chemotherapy (Temozolomide, TMZ, an alkylating agent used clinically to treat brain tumors) induced male germ cell apoptosis in SCID mice bearing subcutaneous implants of human medulloblastoma. DAOY human pediatric medulloblastoma cells ([…] cells/animal) were injected subcutaneously into the right flank of 7-week old male SCID mice. After 3 weeks to allow tumor growth, each group of mice (n=4 to 5/group) received one of the following treatments: 1) vehicle (control); 2) HNG intra-peritoneal (IP) injection (HNG, 5 mg/Kg BW/day, 3 days pretreatment+5 days treatment); 3) TMZ IP injection (TMZ, 50 mg/Kg BW/day X 5 days); 4) TMZ and HNG IP injections (TMZ+HNG). Mice were sacrificed 24 hours after the last injection, subcutaneous tumors were dissected and weighed (FIG. 26) and male germ cell apoptosis was assessed by TUNEL staining and quantified (Apoptosis Index, AI, number of apoptotic germ cell/Sertoli cell, FIG. 27). […] HNG ameliorated TMZ-induced germ cell apoptosis without affecting the chemotherapeutic effect on transplanted medulloblastoma tumor in an immunocompromised mouse model.
# Leydig cells = assay: Testosterone of cultured Leydig cells treated with ketoconazole; format: cell-based, rat; conditions: KTZ 10 mcg/ml, 4 hours, 34° C.
# Method: Leydig cells were isolated based on a previously described procedure (Gao, et al., 1996; Klinefelter, et al., 1987; Salva, et al., 2001). Briefly, the testes were decapsulated, and then dissociated with collagenase, dispase, DNase and shaking for 15 min at 34° C. The seminiferous tubules were removed by filtration through 40 μm nylon mesh (BD Falcon, Franklin Lakes, N.J.). Leydig cells were then harvested after centrifugation and purified using a Percoll gradient (GE Healthcare, Uppsala, Sweden) and centrifugation (60 minutes at 20,000 g at 4° C.). Enriched Leydig cells were harvested at densities between 1.065 (red) and 1.075 (blue) g/cm^3 from the percoll gradient. These Leydig cells were washed by diluting the percoll and excluding residual germ cells and other cells using a BSA density gradient with centrifugation. The purity of the Leydig cells was >90%, as determined by histochemical staining for 3β-hydroxysteroid dehydrogenase. The cell viability, as assessed by trypan blue exclusion, was greater than 90%. […]
# Testosterone concentrations in plasma, testes, and culture medium were measured by a previously described radioimmunoassay (Lue, et al., 2010) with a minimal detection limit of 0.1 ng/ml. […]
# B16 melanoma cells = format: cell-based
# Description: Furthermore, the autophagy induction of humanin may be related to its apparent effects of enhancing longevity observed in other systems.
# in vivo = conditions: male, C57BL/6J, mouse, sc, 10 mg/kg BW
# Method: The objective of this study was to investigate whether HNG has protective effect on sperm output after multiple doses of CP in mice. Thirty adult male mice (C57BL/6J) were randomized into 4 groups: 1) 5 as control; 2) 5 received daily subcutaneously injection of HNG (10 mg/kg BW); 3) 10 were given 6 doses of CP (150 mg/kg BW) intraperitoneally at 5-day intervals; 4) 10 received both HNG and CP. All mice were killed at 28 days. Plasma HNG and IGF-1 levels were measured by ELISAs. The cauda epididymal sperm count was performed using a hemocytometer.
compound,measurement,setting,value
"Cn1nnc2c(C(N)=O)ncn2c1=O [TMZ, Temozolomide]","Apoptosis Index (AI), apoptotic germ cell/Sertoli cell, early+late stages",male germ cells,0.116±0.009
same,"Apoptosis Index (AI), apoptotic germ cell/Sertoli cell, middle stages",male germ cells,0.058±0.006
"CC(=O)N1CCN(c2ccc(OCC3COC(Cn4ccnc4)(c4ccc(Cl)cc4Cl)O3)cc2)CC1 (centres unmarked) [KTZ, ketoconazole, reference compound]",testosterone levels of cultured Leydig cells,Leydig cells,lowered the testosterone levels significantly
CC[C@H](C)[C@H](NC(=O)[C@H](CCC(=O)O)NC(=O)CNC(=O)[C@@H](NC(=O)[C@H](CC(C)C)NC(=O)[C@H](CC(C)C)NC(=O)[C@H](CC(C)C)NC(=O)[C@H](CC(C)C)NC(=O)[C@H](CS)NC(=O)[C@H](CO)NC(=O)[C@H](Cc1ccccc1)NC(=O)CNC(=O)[C@H](CCCNC(=N)N)NC(=O)[C@@H]1CCCN1C(=O)[C@H](C)NC(=O)[C@@H](N)CCSC)[C@@H](C)O)C(=O)N[C@@H](CC(=O)O)C(=O)N[C@@H](CC(C)C)C(=O)N1CCC[C@H]1C(=O)N[C@H](C(=O)N[C@@H](CCCCN)C(=O)N[C@@H](CCCNC(=N)N)C(=O)N[C@@H](CCCNC(=N)N)C(=O)N[C@@H](C)C(=O)O)C(C)C [HNG] (H-MAPRGFSCLLLLTGEIDLPVKRRA-OH; N-terminus and C-terminus assumed),cytotoxicity of combined treatment versus doxorubicin treatment alone,B16 melanoma cells,additive effect on the cytotoxicity
same,level at 672 h,in vivo,80.8 ± 7.8 ng/mL
